Each structure is given as a SMILES string.

Common to all, as to format: cell-based
The test system of one experiment is TNF-α. In words: Cytokine release from LPS-stimulated PBMCs (HTRF). The conditions noted are these: PBMC, human PBMCs. The procedure: (§1) The ability of compounds 1004, 1007 and 1018 to inhibit the release of cytokines TNF-α, IFN-γ, IL-6, IL-21, IL-17A and IL-23 was evaluated in vitro (Tables 2 and 3). Briefly, human peripheral blood mononuclear cells (PBMCs) were isolated from human peripheral blood by Histopaque density gradient centrifugation. The freshly isolated PBMCs were seeded at 50,000 cells/well in a 96-well half area plate. PBMCs were dosed with the test compounds (at 10 μM, 1 μM and 0.1 μM) and then incubated at 37° C. and 5% CO2 for 2 hours. To stimulate release of the cytokines IFN-γ, IL-21, IL-17A and IL-23, the PBMCs were treated with 50 ng/mL of phorbol 12-myristate 13-acetate (PMA) and 1 μg/mL of ionomycin and to stimulate the release of TNF-α and IL-6, PBMCs were treated with 100 ng/mL of lipopolysaccharide (LPS) from gram-negative bacteria. The PBMCs were then incubated at 37° C. and 5% CO2 for a further 6 hours and the cell supernatant was collected and a Homogenous Time Resolved Fluorescence (HTRF) assay was carried out following the manufacturer's instructions. Cytokine release from the PBMCs was captured using a Perkin Elmer ENVISION 2104 microplate reader set at 615 nm and 665 nm respectively.

The subject of another experiment is IL-6. In words: Cytokine release from LPS-stimulated PBMCs (HTRF). The conditions noted are these: PBMC, human PBMCs. How it is done:
as §1
A general note: In TR-FRET formats the signal depends on donor and acceptor labels being close together.

The test system of the next experiment is IFN-γ. Nature of the experiment: Cytokine release from PMA/ionomycin-stimulated PBMCs (HTRF). Particulars: PBMC, human PBMCs, PMA and ionomycin. The procedure:
as §1

A further experiment deals with IL-21. Described as above. The conditions noted are these: PBMC, human PBMCs, PMA and ionomycin. The procedure: as §1
The next experiment deals with IL-23. The experiment is described as above. The conditions noted are these: PBMC, human PBMCs, PMA and ionomycin. The procedure:
as §1

The next experiment concerns IL-17A. Described as above. Particulars: PBMC, human PBMCs, PMA and ionomycin. How it is done:
as §1

The next experiment deals with SK-Mel-28 melanoma cells. Nature of the experiment: Anti-proliferative activity, cell-titre luminescent viability assay. Particulars: Homo sapiens, 72 hours exposure. The procedure:
(§2) The ability of compounds 1001-1018 and 1037-1039 to inhibit the proliferation of cancer cells representative of neuroblastoma, melanoma, prostate cancer, colorectal cancer, non-small cell lung carcinoma, and triple negative breast cancer was assessed (Table 1).
(§3) Briefly, a pre-determined number of cells as calculated from cell growth assays for each of the cell lines employed were seeded into their respective culture medium (using ATCC culture parameters—http://www.atcc.org) and cultured for 24 hours at 37° C. and 5% CO2 in 96-well culture plates. Once attached, each cell line was then exposed to increasing concentrations of each respective analogue (0.03, 0.3, 3 and 30 μM for compounds 1001-13 and 1015-18; 0.1, 0.3, 1, 3, 10 and 30 μM for compounds 1014 and 1037-39), cultured for a further 72 hours and exposed to cell-titre luminescent reagent (100 μL/well) for a further 30 minutes) to measure cell viability. Luminescence was captured using an EnVision multilabel reader and the data for each analogue concentration compared against no treatment control. For compounds 1001-13 and 1015-18, semi-log plots of Percent of Control versus concentration were prepared and IC50 determined using linear regression analysis. For compounds 1014 and 1037-39, cell viability was normalized to control (vehicle alone) and dose-response curves, and half maximal effective concentration (EC50) values were determined using Graph Pad Prism 6 (nonlinear regression sigmoidal dose-response variable slope).

In experiment [1] the test system is A549 lung (NSLC) cancer cells. The experiment is described as above. The conditions noted are these: Homo sapiens, 72 hours exposure. How it is done:
as §2, §3

For experiment [2], the system named is DU145 prostate cancer cells. The description is as above. The conditions noted are these: Homo sapiens, DU-145, 72 hours exposure. How it is done:
as §2, §3

The subject of experiment [3] is PC3 prostate cancer cells. Described as above. Particulars: 72 hours exposure. The procedure:
as §2, §3

Experiment [4] relates to MDA-MB-231 breast cancer cells. The experiment is described as above. The conditions noted are these: Homo sapiens, 72 hours exposure. The procedure: as §2, §3
Experiment [5] relates to SK-N-SH neuroblastoma cells. The description is as above. Particulars: Homo sapiens, 72 hours exposure. How it is done: as §2, §3
Experiment [6] relates to CaCo2 colorectal cancer cells. The experiment is described as above. The conditions noted are these: Homo sapiens, Caco-2, 72 hours exposure. How it is done: as §2, §3
In experiment [7] the test system is actin cytoskeleton in SK-N-SH neuroblastoma cells. In words: Microfilament disruption assay (phalloidin staining, linear feature quantitation). Particulars: 0-40 μM, 24 hours post treatment. How it is done:
FIG. 1: Imaging and quantitation of actin filaments in SK-N-SH neuroblastoma cells treated with compound (A) 1007, (B) 1013 and (C) 1016. Cells were stained with 488-Atto-Phallodin and DAPI to visualize the actin filament bundles and the nucleus, respectively. Shown in the top panel is a representative gray scale immunofluorescent image from control (vehicle alone), 5 μM and 10 μM treated cells. […] The coloured lines indicate the detected actin filaments. Also shown is the quantitation of cell number, filament number/cell and filament number/cell area (μM^2). Statistical analysis was performed using a one way ANNOVA-multiple comparison where each drug treated group was compared to the control. ****p<0.0001, […].
The ability of compounds 1007, 1013 and 1016 to disrupt the actin cytoskeleton was assessed in vitro using the microfilament disruption assay (FIG. 1).
Briefly, SK-N-SH neuroblastoma cells were seeded at 1800 cells/well in a 384 Perkin Elmer High Content Imaging “Cell Carrier” plate and left to plate down 24 hours prior to treatment. Cells were then treated with 0-40 μM of the test compounds (1:2 serial dilution in a 10 point dose response). 24 hours post treatment, cells were fixed with 4% w/v paraformaldehyde (PBS), permeabilized with Triton-X-100 and stained with 488-Atto-Phallodin and DAPI to visualize the actin filament bundles and the nucleus respectively. Single plane images were obtained on the Perkin Elmer Opera confocal microscope using a 20× objective. Twelve fields of view per condition (representing approximately 300-800 cells) were imaged. Images were then exported and changes in the organization and numbers of actin filaments within the cell were quantitated using a linear feature detection algorithm developed by CSIRO (Vindin et al. 2014). This algorithm detects the “ridge lines” or “peaks” in local pixel intensity in the cell image. It is these “ridge lines” that correspond to actin filament bundles and allow us to quantitate the number of filaments per cell.

Experiment [8] relates to Tpm3.1-containing actin filaments in SK-N-SH neuroblastoma cells. Nature of the experiment: Disruption of Tpm3.1-containing actin filaments (γ9d staining). The conditions noted are these: SK-N-SH cells, 0, 5 and 7.5 μM, 48 hours post treatment. The procedure: FIG. 2: Imaging and quantitation of Tpm3.1-containing actin filaments in SK-N-SH neuroblastoma cells treated with compound (A) 1007, (B) 1013 and (C) 1016. Cells were stained with γ9d (sheep polycolonal, 1:100) followed by 488-conjugated secondary (1:1000) and DAPI to visualize the Tpm3.1 containing filament bundles and the nucleus, respectively. Shown in the top panel is a representative gray scale immunofluorescent image from control (vehicle alone), 5 μM and 7.5 μM treated cells. […] The coloured lines indicate the detected Tpm3.1 containing actin filaments. Also shown is the quantitation of cell number, Tpm3.1 filament number/cell and Tpm3.1 filament number/cell area (μM^2). Statistical analysis was performed using a one way ANNOVA-multiple comparison where each drug treated group was compared to the control. ****p<0.0001.
Another assay was conducted to assess the ability of compounds 1007, 1013 and 1016 to specifically disrupt actin filaments containing Tpm3.1 (FIG. 2). Briefly, SK-N-SH neuroblastoma cells were seeded at 2×10^4 cells/mL in a 10 cm tissue culture plate and left to plate down 24 hours prior to treatment. Cells were then treated with 0, 5 and 7.5 μM of the test compounds. 48 hours post treatment, cells were fixed with 4% w/v paraformaldehyde (PBS), permeabilized with Triton-X-100 and stained with γ9d (sheep polycolonal, 1:100) followed by 488-conjugated secondary (1:1000) and DAPI to visualize the Tpm3.1 containing filament bundles and the nucleus, respectively. Single plane images were obtained on the Zeiss epifluorescent Axioscope microscope using a 20× objective. Six fields of view per condition were imaged. Images were then exported and the linear features (actin filaments containing Tpm3.1) were then quantitated using the linear feature detection algorithm described above.

On to `CN(C)CCCn1c2ccccc2c2cc(C(=O)N3CCN(CCc4ccc5c(c4)OCO5)CC3)ccc21` [Compound 1004, (4-(2-(benzo[d][1,3]dioxol-5-yl)ethyl)piperazin-1-yl)(9-(3-(dimethylamino)propyl)-9H-carbazol-3-yl)methanone], for which the inhibition at 0.1 µM with TNF-α is 9%; in the experiment on IL-6 it was -9%; with IFN-γ, -19%; with IL-21, -6%; in the experiment on IL-23 it was -16%; in the experiment with IL-17A it was -2%. The inhibition at 1 µM was -8% with TNF-α; -10% in the experiment with IL-6; -6% with IFN-γ; -3% in the experiment on IL-21; 9% with IL-23; 6% with IL-17A. Also, the inhibition at 10 µM in the experiment with TNF-α is 1%; in the experiment on IL-6, 2%; in the experiment with IFN-γ it was -7%; in the experiment with IL-21 it was 2%; in the experiment on IL-23 it was 22%; with IL-17A, 47%. In addition, the IC50 in the experiment with SK-Mel-28 melanoma cells is 3500 nM; in experiment [1], 3400 nM; in experiment [2], 3300 nM; in experiment [3] it was 2900 nM; in experiment [4] it was 3800 nM; in experiment [5], 2900 nM. Besides, the midpoint of inhibition in experiment [6], the IC50, lay at 3700 nM.
Regarding `CN1CCN(CCCn2c3ccccc3c3cc(C(=O)N4CCN(CCc5ccc(F)cc5)CC4)ccc32)CC1` [Compound 1013, (4-(4-fluorophenethyl)piperazin-1-yl)(9-(3-(4-methylpiperazin-1-yl)propyl)-9H-carbazol-3-yl)methanone], in experiment [7], the “disruption of the actin cytoskeleton” value is given as “disrupt the actin cytoskeleton in a dose-dependent manner”. In addition, in experiment [8], the “disruption of Tpm3.1-containing actin filaments” value is “disrupt Tpm3.1-containing actin filaments in a dose-dependent manner”. Moreover, the IC50 in the experiment on SK-Mel-28 melanoma cells was 2000 nM; in experiment [1], 3700 nM; in [2] it was 3500 nM; in experiment [3], 3300 nM; in experiment [4] it was 2800 nM; in experiment [5], 2400 nM. Half-maximal inhibition in experiment [6] (IC50) required 2000 nM.
Regarding `CN1CCN(CCCn2c3ccccc3c3cc(C(=O)N4CCN(CCc5cccc(F)c5)CC4)ccc32)CC1` [Compound 1016, (4-(3-fluorophenethyl)piperazin-1-yl)(9-(3-(4-methylpiperazin-1-yl)propyl)-9H-carbazol-3-yl)methanone], the “disruption of the actin cytoskeleton” value in [7] is “disrupt the actin cytoskeleton in a dose-dependent manner”. For the same compound, the “disruption of Tpm3.1-containing actin filaments” value in [8] is given as “disrupt Tpm3.1-containing actin filaments in a dose-dependent manner”. For the same compound, the IC50 with SK-Mel-28 melanoma cells stood at 2400 nM; in experiment [1], 3000 nM; in experiment [2], 2800 nM; in [3], 4000 nM; in experiment [4], 2500 nM; in experiment [5], 2700 nM. For the same compound, half-maximal inhibition in [6] (IC50) required 3100 nM.
For the compound `CN1CCN(CCCn2c3ccccc3c3cc(C(=O)N4CCN(CCc5ccccc5)CC4)ccc32)CC1` [Compound 1018, (4-phenethylpiperazin-1-yl)(9-(3-(4-methylpiperazin-1-yl)propyl)-9H-carbazol-3-yl)methanone], the inhibition at 0.1 µM in the experiment with TNF-α was 26%; in the experiment on IL-6, 22%; in the experiment on IFN-γ it was 2%; in the experiment on IL-21 it was 13%; in the experiment on IL-23, -6%; in the experiment with IL-17A, 2%. Also, the inhibition at 1 µM in the experiment with TNF-α is 58%; with IL-6 it was 56%; in the experiment on IFN-γ it was 19%; in the experiment with IL-21, 33%; in the experiment on IL-23 it was -2%; in the experiment with IL-17A, 34%. Also, the inhibition at 10 µM in the experiment with TNF-α was 77%; with IL-6 it was 89%; in the experiment on IFN-γ, 92%; with IL-21, 50%; in the experiment on IL-23 it was 58%; with IL-17A, 45%. Moreover, the IC50 in the experiment on SK-Mel-28 melanoma cells was 2500 nM; in experiment [1], 2000 nM; in experiment [2] it was 3300 nM; in [3], 2900 nM; in experiment [4] it was 1600 nM; in [5], 1900 nM. Further, the IC50 in experiment [6] amounted to 1500 nM.

The term inhibition denotes the relative decrease from the control value, in per cent. In general, IC50 refers to the concentration that gives 50% inhibition.
